Experimental data: ChEMBL document CHEMBL1128323, “Antifungal agents. 9. 3-Aryl-4-[alpha-(1H-imidazol-1-yl)arylmethyl]pyrroles: a new class of potent anti-Candida agents” (1995)
Values after ≈ are worked out from the molar mass of the structure shown.

Assays:
Format in all cases: functional
[1] = tested on: Candida albicans; experiment: Inhibitory activity against Candida albicans (40 clinical isolates), determined at pH-7.2
[2] = tested on: Candida; experiment: Inhibitory activity against Candida. species (40 clinical isolates), determined at pH-5.8
[3] = tested on: Candida; experiment: 90% inhibitory activity against Candida. species (40 clinical isolates) determined at pH-7.2
[4] = tested on: Candida albicans; experiment: Inhibitory activity against Candida albicans (40 clinical isolates), determined at pH-5.8
[5] = tested on: Candida albicans; experiment: Percent resistance against Candida albicans (40 clinical isolates) at 256 micro g/mL (pH=5.8), activity is expressed as R%.
[6] = tested on: Candida; experiment: Inhibitory activity against Candida. species. (40 clinical isolates), determined at pH-5.8
[7] = tested on: Candida albicans; experiment: Inhibitory activity against the Candida albicans (40 clinical isolates), determined at pH-5.8
[8] = tested on: Candida; experiment: Percent resistance against all Candida. species (40 clinical isolates) at 256 micro g/mL (pH=7.2), activity is expressed as R%.
[9] = tested on: Candida albicans; experiment: Inhibitory activity against the Candida albicans (40 clinical isolates), determined at pH-7.2
[10] = tested on: Candida; experiment: Resistance against all Candida. species (40 clinical isolates) at 256 micro g/mL (pH=5.8). Activity is expressed as R%.
[11] = tested on: Candida; experiment: 50% inhibitory activity against the Candida. species (40 clinical isolates) was determined at pH-7.2
[12] = tested on: Candida albicans; experiment: 50% inhibitory activity against Candida albicans (40 clinical isolates) determined at pH-5.8
[13] = tested on: Candida albicans; experiment: Resistance against Candida. albicans (40 clinical isolates) at 256 ug/mL (pH=7.2), activity is expressed as R%.
[14] = tested on: Candida; experiment: Inhibitory activity against Candida. species. (40 clinical isolates), determined at pH-7.2
[15] = tested on: Candida albicans; experiment: 50% inhibitory activity against Candida albicans (40 clinical isolates) determined at pH-7.2
[16] = Candida albicans, read-out: MIC50

SMILES	MIC [1] [µg/mL]	MIC50 [2] [µg/mL]	MIC90 [2] [µg/mL]	MIC90 [3] [µg/mL]	MIC [4] [µg/mL]	R [5] [%]	MIC [6] [µg/mL]	MIC90 [7] [µg/mL]	R [8] [%]	MIC90 [9] [µg/mL]	R [10] [%]	MIC50 [11] [µg/mL]	MIC50 [12] [µg/mL]	R [13] [%]	MIC [14] [µg/mL]	MIC50 [15, 16] [µg/mL]	MIC50 [15] [µg/mL]
Fc1ccc(C(c2c[nH]cc2-c2ccccc2Cl)n2ccnc2)cc1 (centres undefined)	36.5 (≈ 104 µM)	64 (≈ 182 µM)	64 (≈ 182 µM)	256 (≈ 728 µM)	48.3 (≈ 137 µM)	0	71.1 (≈ 202 µM)	64 (≈ 182 µM)	0	64 (≈ 182 µM)	0	64 (≈ 182 µM)	32 (≈ 91 µM)	0	107 (≈ 305 µM)	32 (≈ 91 µM)	–
Clc1ccc(-c2c[nH]cc2C(c2ccc(-n3cccc3)cc2)n2ccnc2)cc1 (centres undefined)	> 121	64 (≈ 160 µM)	> 256	256 (≈ 642 µM)	> 119	16	> 156	256 (≈ 642 µM)	50	256 (≈ 642 µM)	40	256 (≈ 642 µM)	64 (≈ 160 µM)	20	> 229	64 (≈ 160 µM)	–
Clc1ccc(C(c2c[nH]cc2-c2ccccc2)n2ccnc2)c(Cl)c1 (centres undefined)	> 256	> 256	> 256	> 256	> 256	100	> 256	> 256	100	> 256	100	> 256	> 256	100	> 256	> 256	–
Clc1ccc(C(c2c[nH]cc2-c2ccc(Cl)cc2Cl)n2ccnc2)cc1 (centres undefined)	> 66.4	16 (≈ 39.7 µM)	16 (≈ 39.7 µM)	> 256	> 6.8	0	13.7 (≈ 34 µM)	256 (≈ 636 µM)	40	256 (≈ 636 µM)	0	64 (≈ 159 µM)	4 (≈ 9.93 µM)	5	> 212	8 (≈ 19.9 µM)	–
c1ccc(-c2c[nH]cc2C(c2ccc(-n3cccc3)cc2)n2ccnc2)cc1 (centres undefined)	37.3 (≈ 102 µM)	32 (≈ 87.8 µM)	64 (≈ 176 µM)	64 (≈ 176 µM)	30.4 (≈ 83.4 µM)	0	40 (≈ 110 µM)	32 (≈ 87.8 µM)	0	32 (≈ 87.8 µM)	0	32 (≈ 87.8 µM)	16 (≈ 43.9 µM)	0	42.1 (≈ 116 µM)	16 (≈ 43.9 µM)	–
Clc1ccc(C(c2c[nH]cc2-c2ccccc2)n2ccnc2)cc1Cl (centres undefined)	41.9 (≈ 114 µM)	64 (≈ 174 µM)	64 (≈ 174 µM)	256 (≈ 695 µM)	38.6 (≈ 105 µM)	0	114 (≈ 311 µM)	64 (≈ 174 µM)	20	64 (≈ 174 µM)	0	128 (≈ 348 µM)	16 (≈ 43.4 µM)	0	191 (≈ 519 µM)	16 (≈ 43.4 µM)	–
O=[N+]([O-])c1ccc(C(c2c[nH]cc2-c2ccc(Cl)c(Cl)c2)n2ccnc2)cc1 (centres undefined)	> 312	> 256	> 256	> 256	> 283	50	> 256	> 256	100	> 256	100	> 256	256 (≈ 619 µM)	50	> 256	256 (≈ 619 µM)	–
Clc1ccc(C(c2c[nH]cc2-c2ccccc2Cl)n2ccnc2)cc1 (centres undefined)	9.1 (≈ 24.7 µM)	32 (≈ 86.9 µM)	64 (≈ 174 µM)	16 (≈ 43.4 µM)	18.7 (≈ 50.8 µM)	0	30.2 (≈ 82 µM)	32 (≈ 86.9 µM)	0	16 (≈ 43.4 µM)	0	16 (≈ 43.4 µM)	–	0	15 (≈ 40.7 µM)	8 (≈ 21.7 µM)	16 (≈ 43.4 µM)
Nc1ccc(C(c2c[nH]cc2-c2ccc(Cl)cc2)n2ccnc2)cc1 (centres undefined)	98.2 (≈ 282 µM)	82.5 (≈ 237 µM)	82.5 (≈ 237 µM)	128 (≈ 367 µM)	42.8 (≈ 123 µM)	0	82.5 (≈ 237 µM)	128 (≈ 367 µM)	0	128 (≈ 367 µM)	0	128 (≈ 367 µM)	32 (≈ 91.7 µM)	0	184 (≈ 527 µM)	64 (≈ 183 µM)	–
Clc1ccc(-c2c[nH]cc2C(c2ccc(Cl)cc2Cl)n2ccnc2)cc1 (centres undefined)	3.6 (≈ 8.94 µM)	16 (≈ 39.7 µM)	32 (≈ 79.5 µM)	128 (≈ 318 µM)	3.94 (≈ 9.78 µM)	0	14.4 (≈ 35.8 µM)	8 (≈ 19.9 µM)	0	8 (≈ 19.9 µM)	0	32 (≈ 79.5 µM)	2 (≈ 4.97 µM)	0	61 (≈ 151 µM)	2 (≈ 4.97 µM)	–
Cc1ccc(C(c2c[nH]cc2-c2ccc(Cl)cc2Cl)n2ccnc2)cc1 (centres undefined)	13.1 (≈ 34.3 µM)	16 (≈ 41.9 µM)	32 (≈ 83.7 µM)	> 256	7.9 (≈ 20.7 µM)	0	16.4 (≈ 42.9 µM)	16 (≈ 41.9 µM)	50	16 (≈ 41.9 µM)	0	256 (≈ 670 µM)	8 (≈ 20.9 µM)	0	> 224	8 (≈ 20.9 µM)	–
Clc1ccc(-c2c[nH]cc2C(c2ccc(-n3cccc3)cc2)n2ccnc2)c(Cl)c1 (centres undefined)	> 256	16 (≈ 36.9 µM)	32 (≈ 73.8 µM)	> 256	33.7 (≈ 77.8 µM)	0	19.5 (≈ 45 µM)	64 (≈ 148 µM)	100	> 256	0	> 256	16 (≈ 36.9 µM)	100	> 256	> 256	–
Clc1ccccc1-c1c[nH]cc1C(c1ccccc1)n1ccnc1 (centres undefined)	19.2 (≈ 57.5 µM)	64 (≈ 192 µM)	32 (≈ 95.9 µM)	64 (≈ 192 µM)	43.8 (≈ 131 µM)	0	78.2 (≈ 234 µM)	64 (≈ 192 µM)	0	32 (≈ 95.9 µM)	0	32 (≈ 95.9 µM)	–	0	22.6 (≈ 67.7 µM)	16 (≈ 47.9 µM)	32 (≈ 95.9 µM)
Clc1ccc(C(c2c[nH]cc2-c2ccccc2Cl)n2ccnc2)c(Cl)c1 (centres undefined)	7.3 (≈ 18.1 µM)	16 (≈ 39.7 µM)	16 (≈ 39.7 µM)	32 (≈ 79.5 µM)	5.19 (≈ 12.9 µM)	0	13.7 (≈ 34 µM)	16 (≈ 39.7 µM)	0	16 (≈ 39.7 µM)	0	32 (≈ 79.5 µM)	4 (≈ 9.93 µM)	0	21.8 (≈ 54.1 µM)	4 (≈ 9.93 µM)	–
Clc1ccc(-c2c[nH]cc2C(c2ccccc2)n2ccnc2)cc1Cl (centres undefined)	> 10.9	16 (≈ 43.4 µM)	32 (≈ 86.9 µM)	16 (≈ 43.4 µM)	7.2 (≈ 19.6 µM)	0	19.1 (≈ 51.9 µM)	16 (≈ 43.4 µM)	0	16 (≈ 43.4 µM)	0	16 (≈ 43.4 µM)	8 (≈ 21.7 µM)	0	11.4 (≈ 31 µM)	6 (≈ 16.3 µM)	–
Cc1ccc(C(c2c[nH]cc2-c2ccc(Cl)c(Cl)c2)n2ccnc2)cc1 (centres undefined)	5.8 (≈ 15.2 µM)	16 (≈ 41.9 µM)	16 (≈ 41.9 µM)	32 (≈ 83.7 µM)	7.9 (≈ 20.7 µM)	0	14.2 (≈ 37.1 µM)	16 (≈ 41.9 µM)	0	16 (≈ 41.9 µM)	0	16 (≈ 41.9 µM)	4 (≈ 10.5 µM)	0	17.5 (≈ 45.8 µM)	4 (≈ 10.5 µM)	–
Fc1ccc(C(c2c[nH]cc2-c2ccc(Cl)c(Cl)c2)n2ccnc2)cc1 (centres undefined)	7.2 (≈ 18.6 µM)	16 (≈ 41.4 µM)	32 (≈ 82.8 µM)	32 (≈ 82.8 µM)	7.2 (≈ 18.6 µM)	0	16.4 (≈ 42.5 µM)	16 (≈ 41.4 µM)	0	16 (≈ 41.4 µM)	0	32 (≈ 82.8 µM)	4 (≈ 10.4 µM)	0	26.6 (≈ 68.9 µM)	4 (≈ 10.4 µM)	–
Clc1ccc(-c2c[nH]cc2C(c2ccc(-n3cccc3)cc2)n2ccnc2)cc1Cl (centres undefined)	> 289	> 256	> 256	> 256	> 264	40	> 256	> 256	80	> 256	100	> 256	128 (≈ 295 µM)	50	> 438	128 (≈ 295 µM)	–
O=[N+]([O-])c1ccc(C(c2c[nH]cc2-c2ccc(Cl)cc2)n2ccnc2)cc1 (centres undefined)	> 91.8	> 256	> 256	64 (≈ 169 µM)	> 60.1	0	> 355	32 (≈ 84.5 µM)	10	64 (≈ 169 µM)	60	32 (≈ 84.5 µM)	16 (≈ 42.2 µM)	0	> 91.8	32 (≈ 84.5 µM)	–
